Experimental data: a melting point compilation (Tetko et al.; mined from patent text by program, amines drawn as free bases though some values may be those of a salt)

melting point [°C] | Structure (SMILES)
203 to 205 | C(#Cc1ccsc1)C1=CCN(Cc2c[nH]c3ncccc23)CC1
177 to 178 | COc1cc2c(cn1)OCC21C(=O)N(C(c2ccccc2)c2ccccc2)c2ccccc21 (configuration not stated)
163 to 167 | N#Cc1cc(C(=O)NNC(=O)c2occ(-c3ccccc3)c2-c2ccccc2)ccc1OC(=O)c1ccccc1
200 to 203 | CNC(=O)C=Cc1cn(C)nc1[N+](=O)[O-]
106 | COC(=O)c1cc(N(C)C(C)=O)cc(N(C)C(C)=O)c1
184 to 186 | Cc1cccc2c(=O)[nH]c(N3CCN(C)C(CO)C3)cc12 (configuration not stated)
190 to 200 | CN(CCCc1c(N)nc(N)[nH]c1=O)c1ccc(C(=O)N[C@@H](CCC(=O)O)C(=O)O)cc1
229 to 231 | CCc1c(-c2ccc(OCc3ccccc3)cc2)c2c3c(c4c(OCc5ccccc5)ccc1n42)C(=O)OC3=O
146 to 148 | COc1ccc(-c2nc(C(F)(F)F)cn2-c2ccc(C#N)cc2)cc1
91.5 to 93 | N#Cc1cc(Cc2ccc(Cl)cc2)ccc1N
118 to 121 | CCn1c(C)nc2cc(C(=O)OC)ccc21
202 | O=C1c2cccc([N+](=O)[O-])c2C(=O)N1c1ccc(O)cc1
162 to 163 | C[C@@H](n1cc(Cn2cncn2)nn1)[C@](O)(Cn1cncn1)c1ccc(F)cc1F
160 to 162 | CS(=O)C(C)(O)c1ccc(-c2ccccc2)cc1 (configuration not stated)
203 to 209 | COc1ccc2c(c1)c1c3c(c(-c4c(Cl)cccc4Cl)cc1n2CCC(=O)O)C(=O)NC3=O
237 to 238 | O=C(Nc1ccc([N+](=O)[O-])cc1O)NC(c1ccccc1)c1ccccc1
206 | CC1CCN(c2c(-c3c(F)cc(F)cc3F)c(Cl)nc3nc(S(C)(=O)=O)nn23)CC1
190 to 192 | FC(F)(F)Oc1ccc2nc(-c3ccc(Cl)cc3)[nH]c2c1
182 to 186 | O=C(Nc1ccc(-n2nc(C3CC3)cc2C2CC2)c(F)c1)c1c(F)cccc1F
260 to 262 | O=C(O)c1ccc2c(oc3ccccc32)c1C(=O)O
96 | CC(C)COC(=O)c1ccc(OCC(=NO)c2ccc3c(c2)C(C)(C)CCC3(C)C)cc1O
135 to 137 | COc1cc(NC(=O)CCN2CCCN(CCC(=O)Nc3cc(OC)c(OC)c(OC)c3)CC2)cc(OC)c1OC
108 to 110 | CC(C)(C)c1cc(SCCC(=O)O)cc(C(C)(C)C)c1O
178 to 180 | O=c1c2c(n(-c3ccccc3)c3ncccc13)OC(CI)C2 (configuration not stated)

melting point [°C] | Structure (SMILES)
171 to 173 | Cc1oc(-c2ccccc2)nc1CCOc1ccc(C[C@@H](C(=O)O)N2CCN(S(=O)(=O)c3ccccc3[N+](=O)[O-])CC2)cc1
140 | CCn1c(=O)n(CCOCCOC)c(=O)c2c1ncn2Cc1ccccc1
270 to 271 | O=C(NC(Cc1ccc(OCc2ccccc2)cc1)C(=O)O)c1cn2cc(-c3ccc(Cl)cc3)ccc2n1 (configuration not stated)
176 to 178 | CC[C@@H](c1ccccc1)N(Cc1ccc(C(=O)O)cc1OC)S(=O)(=O)c1ccc(Cl)cc1
246 to 247 | CC(C)(C)CCC(=O)c1ccc2cc(-c3ccc4c(Br)c(OCC(=O)O)ccc4c3)sc2c1
169 to 170 | CC(C)n1nc(-c2sc(C(=O)NN(C)C)nc2-c2ccc(F)cc2)ccc1=O
195 to 196 | Oc1ccc(Nc2ccc3cc(O)ccc3c2)cc1
59 to 60.5 | CCOC(=O)C(Cc1ccc(OC)cc1SCc1ccc(OC)cc1)(CC(C)C)C(=O)OCC
148 to 150 | CCc1c(-c2ccc(OCc3ccccc3)cc2)c2cc(CO)c3cccc1n32
141 to 145 | CS(=O)(=O)c1ccc(-c2sc(Br)cc2-c2ccc(F)cc2)cc1
260 to 262 | O=c1c2c(CCc3ccc([N+](=O)[O-])cc3)n[nH]c2c2cccnc2n1-c1ccccc1
153 to 154 | CC(C)c1n[nH]c2c(NCc3ccccc3)ncnc12
108 to 110 | CCCCNC(=O)C(=O)[C@H](CC(C)C)NC(=O)[C@@H](NS(=O)(=O)c1ccc(F)cc1)C(C)C
165 | CC1(Cc2ccccc2)COc2cc(C(=O)O)ccc21 (configuration not stated)
104 to 106 | COc1ccc(N2C(=O)C(O[Si](C(C)C)(C(C)C)C(C)C)C2C=Cc2ccco2)cc1 (configuration not stated)
125 to 126 | CCC(C)OC(=O)SN(C(=O)N1CC2(C(=O)OC)CCc3ccccc3C2=N1)c1ccc(C(F)(F)F)cc1 (configuration not stated)
108 to 110 | Cc1cc(C)c(C2=C(OC(=O)C(C)(C)C)CC(CC3CCOC3)CC2=O)c(C)c1 (configuration not stated)
134 to 136 | CC(=O)NC[C@H]1CN(c2cc(F)c(N3CCC(Cc4noc(C)n4)CC3)c(F)c2)C(=O)O1
112 to 113 | CCc1c(Sc2ccccc2)n(CC2CC=CC2)c(=O)[nH]c1=O
194 to 195 | Cc1sc(C(=O)NCc2ccc3c(c2)OCO3)cc1NC(=O)NCc1ccccc1
135 to 136 | Cc1oc(-c2ccco2)nc1COc1cccc(COc2nn(Cc3ccccc3)cc2C=O)c1
98.8 to 99.4 | COCOc1cc(C(F)(F)F)ccc1-c1cc(Oc2ccc3cccnc3c2)ncn1
200 | NC(=O)C=Cc1ccc(N)cc1
211 to 213 | CCNC(=O)Nc1nc2cc(-c3cccnc3)cc(C(=O)OC)n2n1

melting point [°C] | Structure (SMILES)
63 to 66 | O=S(=O)(CCl)Nc1ccnn1-c1c(Cl)cc(C(F)(F)F)cc1Cl
78 | COc1ccc([N+](=O)[O-])cc1CBr
149 | O=C(c1ccncc1)c1cc(-c2ccccc2)c(N2CCOCC2)s1
214 to 222 | Cc1c(-c2ccccc2)c(N2CC[C@H](N(C)C)C2)c2oc(-c3cnn(C)c3)nc2c1C#N
112 to 120 | CC(C)(N)c1ccc(-c2nc(Nc3ccc(CCn4ccnc4)cc3)ncc2Cl)cc1F
194 to 195 | Cc1nc(-c2ccc(OCC(C)(C)C)c(I)c2)sc1C(=O)O
159 to 160 | O=C(CCc1ccccc1)Nc1cc(-c2nnc(SCc3cccc(C(F)(F)F)c3)o2)ccn1
88 to 89 | CCOC(=O)COc1ccc(-c2noc3ccccc23)c(Cl)c1Cl
102 to 103 | O=C(Cl)CN1C(=O)C(Cl)=C(Cl)C1=O
199 to 200 | CCc1nc2c(N)nc3ccccc3c2n1CCC1(O)CC1
178 to 179 | Cc1ccccc1C(CCC(=O)O)Oc1cc(OCc2ccsc2)ccc1-c1nc(C(=O)O)co1 (racemic)
174 to 178 | COCC(C)NC1=NS(=O)(=O)c2cnccc2N1 (configuration not stated)
246 | Cc1c(/C=C/c2cccc([N+](=O)[O-])c2C)cccc1[N+](=O)[O-]
114 to 115 | CCCc1nn(CC)c2c(=O)[nH]c(-c3ccccc3OCC)nc12
184 | O=C1Nc2ccccc2C1C(=O)C(F)(F)F (configuration not stated)
193 to 195 | Cc1cc(C(=N)NO)cn2cc(-c3cccc(-c4ccc(C(=N)NO)cc4)c3)nc12
122 to 124 | COc1ccc2cc(CC(=O)OCC(C)=O)ccc2c1
130 to 132 | COc1ccc2c(cccc2[C@H]2CO[C@H](CCCNC(=O)OCc3nccn3C(c3ccccc3)(c3ccccc3)c3ccccc3)OC2)c1
93 to 95 | Cc1cc2cc([N+](=O)[O-])ccc2o1
81 to 83 | CCCC(C)(Cl)Cn1ncc(OCc2ccc(CC)cc2)c(Cl)c1=O (configuration not stated)
100 to 104 | CC(C)(C)N1C(=O)c2cc([N+](=O)[O-])c(Cl)nc2C1=O
100 | COc1cc2c(cc1OC)CN(CCCOc1ccc([N+](=O)[O-])cc1)CC2
96 to 98 | COC(=O)C1(n2c(=O)c3ccccc3n(CCCCBr)c2=O)CCCC1
98 to 99 | COc1cccc(C(CNC(=O)Cc2c(Cl)cncc2Cl)CC(C)C)c1 (configuration not stated)

melting point [°C] | Structure (SMILES)
178 to 180 | COc1cc(C)nc(NC(=O)NS(=O)(=O)c2cccc3nc(C)sc23)n1
164 to 166 | Clc1cc(Cl)c2nccc(Br)c2c1
182 to 184 | O=CNc1nc(CSc2ccncc2)cs1
87 | CC(C)C[C@H](C(=O)OCc1ccccc1)N1CC[C@]2(CCCN2C(=O)C(C)C)C1=O
147 to 152 | COC(=O)c1cn(C(c2ccccc2)(c2ccccc2)c2ccccc2)cn1
96 to 97 | COC(=O)c1ccc(Cl)cc1NC(=O)Cc1ccsc1
95 to 96 | N#CSCC(=O)N1CCCC1
214 to 216 | COc1cc(Cc2cnc(N)nc2NC(C)=O)cc(OC)c1C(C)(C)O
168 to 169 | C#CCn1nc(-c2ccc(F)cc2)c(-c2ccc(S(C)(=O)=O)cc2)cc1=O
50 to 55 | C=CCCC(F)c1cccc(C2(c3ccc(OC(F)F)cc3)N=C(N)N(C)C2=O)c1 (configuration not stated)
118 to 119 | COc1ncc(C(=O)Cc2c(Cl)cncc2Cl)cc1OC1CCCC1
49 to 50 | CCc1cc2cc(OC)ccc2[nH]1
92 | CCCCCCSc1cc(SCCCCCC)c2ccc3c(SCCCCCC)cc(SCCCCCC)c4ccc1c2c43
108 to 110 | COc1ccc(C2=NC(C)(C)CO2)cc1N
166 to 168 | N#CCC(=O)N(N)c1c(Cl)cc(Cl)cc1Cl
91 to 92 | C=CCOc1cc(-c2nn3c(c2Cl)CCCC3)c(F)cc1Cl
164 to 165 | CCc1nccn2c(-c3ccnc(NCC(C)(C)O)n3)c(-c3ccc(F)cc3F)nc12
179 to 182 | CC(C)c1n[nH]c2c(NCc3ccco3)ncnc12
152 to 153 | Cc1oc2c(-n3c(=O)cc(C(F)(F)F)n(C)c3=O)ccc(Cl)c2c1C
86 to 87 | O=[N+]([O-])c1cc(S(=O)c2ccccc2)ccc1Cl (configuration not stated)
98 | CCOC(=O)c1ccc(/C=C(\C)C=O)s1

Structure (SMILES) | melting point [°C]
O=C(Nc1ccccc1)ONC1=Nc2ccc([N+](=O)[O-])cc2C(c2ccccc2Cl)=NC1 | 201 to 203
COc1cc(-c2cc(=O)c3c(OC)cc(OC)c(C4=CCN(C)CC4)c3o2)cc(OC)c1OC | 211 to 212
CCC1CC2=CC(O)CCC2C2CCC3(C)C(O)CCC3C12 (configuration not stated) | 93 to 95
COc1cc(NC(=O)C2C(=O)N(C)C(=S)N(C)C2=O)ccc1Oc1ccc(C(F)(F)F)cc1Cl | 178 to 182
